# In the OligoGym collection:
# HELM strings list units from the 5' end as sugar, base in round brackets, then linkage (d deoxyribose, r ribose, m 2'-O-methyl, p phosphodiester). Strings are as the collection lists them; they lack the last nucleoside at the 3' end of the tested compound. [moe] = 2'-O-(2-methoxyethyl) (MOE); [sp] = phosphorothioate linkage; [m5C] = 5-methylcytosine
# Molecular target: UBE3A-ATS
# Assay: mouse, dose not given
# Settings: ASO
row,Substance,3 h FOB score
1,RNA1{[moe]([m5C])[sp].[moe](A)p.[moe]([m5C])p.[moe](T)p.[moe]([m5C])p.d(T)[sp].d(A)[sp].d(T)[sp].d(A)[sp].d(G)[sp].d(G)[sp].d(T)[sp].d(T)[sp].d([m5C])[sp].d(A)[sp].[moe](A)p.[moe](G)p.[moe]([m5C])[sp].[moe](A)}$$$$ (last 3' nucleoside missing),4 score 0-7
2,RNA1{[moe]([m5C])[sp].[moe](A)p.[moe]([m5C])p.[moe]([m5C])p.[moe](T)p.d(A)[sp].d(G)[sp].d(G)[sp].d([m5C])[sp].d(T)[sp].d(G)[sp].d(G)[sp].d(G)[sp].d([m5C])[sp].d([m5C])[sp].[moe](T)p.[moe]([m5C])p.[moe](A)[sp].[moe](G)}$$$$ (last 3' nucleoside missing),3.5 score 0-7
3,RNA1{[moe]([m5C])[sp].[moe](G)p.[moe](G)p.[moe](A)p.[moe]([m5C])p.d(A)[sp].d(G)[sp].d(T)[sp].d(G)[sp].d(T)[sp].d(T)[sp].d(G)[sp].d([m5C])[sp].d(T)[sp].d(G)[sp].[moe](T)p.[moe](T)p.[moe](A)[sp].[moe](G)}$$$$ (last 3' nucleoside missing),6 score 0-7
4,RNA1{[moe]([m5C])[sp].[moe](G)p.[moe](G)p.[moe](G)p.[moe]([m5C])p.d(T)[sp].d(A)[sp].d(T)[sp].d(G)[sp].d(T)[sp].d(G)[sp].d(A)[sp].d(G)[sp].d(A)[sp].d(T)[sp].[moe](A)p.[moe](A)p.[moe](T)[sp].[moe](T)}$$$$ (last 3' nucleoside missing),4 score 0-7
5,RNA1{[moe]([m5C])[sp].[moe](G)p.[moe](T)p.[moe](A)p.[moe](T)p.d(T)[sp].d(G)[sp].d(G)[sp].d(A)[sp].d([m5C])[sp].d([m5C])[sp].d(T)[sp].d(T)[sp].d(T)[sp].d([m5C])[sp].[moe](A)p.[moe](A)p.[moe](T)[sp].[moe](G)}$$$$ (last 3' nucleoside missing),3.5 score 0-7
6,RNA1{[moe]([m5C])[sp].[moe](G)p.[moe](T)p.[moe](G)[sp].d(A)[sp].d(G)[sp].d([m5C])[sp].d(T)[sp].d(A)[sp].d(T)[sp].d([m5C])[sp].d(T)[sp].[moe](G)p.[moe](T)p.[moe](A)p.[moe]([m5C])[sp].[moe](A)}$$$$ (last 3' nucleoside missing),1 score 0-7
7,RNA1{[moe]([m5C])[sp].[moe](G)p.[moe](T)p.[moe](G)p.[moe](A)[sp].d(G)[sp].d([m5C])[sp].d(T)[sp].d(A)[sp].d(T)[sp].d([m5C])[sp].d(T)[sp].d(G)[sp].[moe](T)p.[moe](A)p.[moe]([m5C])[sp].[moe](A)}$$$$ (last 3' nucleoside missing),1.3 score 0-7
8,RNA1{[moe]([m5C])[sp].[moe](G)p.[moe](T)p.[moe](G)p.[moe](A)p.[moe](G)[sp].d([m5C])[sp].d(T)[sp].d(A)[sp].d(T)[sp].d([m5C])[sp].d(T)[sp].d(G)[sp].d(T)[sp].[moe](A)p.[moe]([m5C])[sp].[moe](A)}$$$$ (last 3' nucleoside missing),2 score 0-7
9,RNA1{[moe]([m5C])[sp].[moe](G)p.[moe](T)p.[moe](G)p.[moe](A)p.[moe](G)p.d([m5C])[sp].d(T)[sp].d(A)[sp].d(T)[sp].d([m5C])[sp].d(T)[sp].d(G)[sp].d(T)[sp].d(A)[sp].d([m5C])[sp].[moe](A)p.[moe](A)[sp].[moe](A)}$$$$ (last 3' nucleoside missing),1 score 0-7
10,RNA1{[moe]([m5C])[sp].[moe](G)p.[moe](T)p.[moe](G)p.[moe](A)p.d(G)[sp].d([m5C])[sp].d(T)[sp].d(A)[sp].d(T)[sp].d([m5C])[sp].d(T)[sp].d(G)[sp].d(T)[sp].d(A)[sp].[moe]([m5C])p.[moe](A)p.[moe](A)[sp].[moe](A)}$$$$ (last 3' nucleoside missing),3.2 score 0-7
